# Experimental data reported in the supplement of paper PMC11061612.
# What was measured:
# Test in all cases: Bliss excess, mean over the matrix (fraction); higher = more synergy
# [1] = test system: JHU-022 (Oral Cavity Carcinoma)
# Method in brief: (§1)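 After 24 hours at 37°C and 5% CO2 in 1536-well plates, cells in DMEM/F12 or RPMI plus 10% FBS received two-drug dose matrices for 72 hours. Viability came from CellTiter-Glo 2.0 luminescence and was scaled as inhibition, anchored at 0 by vehicle wells and at 1 by blank wells. Combination Emax is taken as the second-highest inhibition in the matrix, and Bliss excess as the observed combination effect less EA + EB − EA·EB, with EA and EB the single-agent effects.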
# KP-N-YN (Neuroblastoma) = test system: KP-N-YN (Neuroblastoma)
# Method in brief: as §1
# [2] = test system: NCI-H1703 (Squamous Cell Lung Carcinoma)
# Method in brief: as §1
# [3] = test system: SK-HEP-1 (Hepatocellular Carcinoma)
# Method in brief: as §1
# PEO1 (Ovarian Carcinoma) = test system: PEO1 (Ovarian Carcinoma)
# Method in brief: as §1
# [4] = test system: NCI-H1651 (Lung Adenocarcinoma)
# Method in brief: as §1
# HCC70 (Breast Carcinoma) = test system: HCC70 (Breast Carcinoma)
# Method in brief: as §1
# EW-7 (Ewing's Sarcoma) = test system: EW-7 (Ewing's Sarcoma)
# Method in brief: as §1
# IM-9 (Non-Cancerous) = test system: IM-9 (Non-Cancerous)
# Method in brief: as §1
# [5] = test system: NCI-H441 (Lung Adenocarcinoma)
# Method in brief: as §1
# [6] = test system: JHH-2 (Hepatocellular Carcinoma)
# Method in brief: as §1
# NB13 (Neuroblastoma) = test system: NB13 (Neuroblastoma)
# Method in brief: as §1
SMILES,Bliss excess [1],Bliss excess (KP-N-YN (Neuroblastoma)),Bliss excess [2],Bliss excess [3],Bliss excess (PEO1 (Ovarian Carcinoma)),Bliss excess [4],Bliss excess (HCC70 (Breast Carcinoma)),Bliss excess (EW-7 (Ewing's Sarcoma)),Bliss excess (IM-9 (Non-Cancerous)),Bliss excess [5],Bliss excess [6],Bliss excess (NB13 (Neuroblastoma))
"C[C@@H](Nc1cc(F)cc(F)c1)c1cc(C(=O)N(C)C)cc2c(=O)cc(N3CCOCC3)oc12 [AZD8186] + CC(=O)c1c(C)c2cnc(Nc3ccc(N4CCNCC4)cn3)nc2n(C2CCCC2)c1=O [Palbociclib] (first compound max 10 µM, 7x7, partner max 10 µM)",-0.0376,0.0108,0.0093,-0.0155,-0.026,-0.0192,0.0225,0.045,0.112,0.0155,-0.0282,–
"C[C@@H]1COCCN1c1cc(C2([S@](C)(=N)=O)CC2)nc(-c2ccnc3[nH]ccc23)n1 [AZD6738] + C1CC(C1)(C(=O)[O-])C(=O)[O-].N.N.[Pt+2] [Carboplatin] (first compound max 10 µM, 7x7, partner max 10 µM)",-0.0325,-0.0177,-0.0312,-0.0469,-0.0595,-0.0327,-0.0305,-0.0315,0.0081,-0.0436,-0.0309,-0.0955
"CC1(C)CCC(CN2CCN(c3ccc(C(=O)NS(=O)(=O)c4ccc(NCC5CCOCC5)c([N+](=O)[O-])c4)c(Oc4cnc5[nH]ccc5c4)c3)CC2)=C(c2ccc(Cl)cc2)C1 [Venetoclax] + CS(=O)(=O)CCNCc1ccc(-c2ccc3ncnc(Nc4ccc(OCc5cccc(F)c5)c(Cl)c4)c3c2)o1 [Lapatinib] (first compound max 1 µM, 7x7, partner max 10 µM)",-0.0551,-0.0157,0.0019,0.0013,-0.0673,-0.0182,-0.0318,0.0078,0.0902,-0.0292,-0.0664,-0.028
"C[C@@H](Oc1cc(-c2cnn(C3CCNCC3)c2)cnc1N)c1c(Cl)ccc(F)c1Cl [Crizotinib] + CC1=C(C(=CC=C1)Cl)NC(=O)C2=CN=C(S2)NC3=CC(=NC(=N3)C)N4CCN(CC4)CCO [Dasatinib] (first compound max 10 µM, 7x7, partner max 2 µM)",-0.0186,-0.0895,-0.0736,-0.0098,-0.0226,-0.0149,-0.0407,-0.0072,0.0001,0.0104,-0.0101,-0.06
"C[C@@H](Oc1cc(-c2cnn(C3CCNCC3)c2)cnc1N)c1c(Cl)ccc(F)c1Cl [Crizotinib] + Cn1cnc2c(F)c(Nc3ccc(Br)cc3Cl)c(C(=O)NOCCO)cc21 [Selumetinib] (first compound max 10 µM, 7x7, partner max 10 µM)",-0.0115,-0.105,-0.0569,-0.0968,-0.0013,-0.0478,0.0191,-0.0101,-0.009,0.0148,0.0094,-0.104
"CS(=O)(=O)CCNCc1ccc(-c2ccc3ncnc(Nc4ccc(OCc5cccc(F)c5)c(Cl)c4)c3c2)o1 [Lapatinib] + Cn1cnc2c(F)c(Nc3ccc(Br)cc3Cl)c(C(=O)NOCCO)cc21 [Selumetinib] (first compound max 10 µM, 7x7, partner max 10 µM)",-0.0636,-0.0666,-0.0179,-0.0163,-0.0453,-0.0355,0.0408,0.0166,-0.0826,-0.0353,-0.0273,-0.0311
"C[C@@H]1COCCN1c1cc(C2([S@](C)(=N)=O)CC2)nc(-c2ccnc3[nH]ccc23)n1 [AZD6738] + Nc1ccn([C@@H]2O[C@H](CO)[C@@H](O)C2(F)F)c(=O)n1 [Gemcitabine] (first compound max 10 µM, 7x7, partner max 0.3 µM)",0.0407,–,-0.006,0.0557,0.0764,0.039,0.0904,0.0313,-0.0189,0.0418,0.0069,–
"C[C@@H](Nc1cc(F)cc(F)c1)c1cc(C(=O)N(C)C)cc2c(=O)cc(N3CCOCC3)oc12 [AZD8186] + C1CN(CCC1(C(=O)N[C@@H](CCO)C2=CC=C(C=C2)Cl)N)C3=NC=NC4=C3C=CN4 [AZD5363] (first compound max 10 µM, 7x7, partner max 10 µM)",-0.0909,-0.0765,0.0503,-0.0291,-0.0405,-0.0302,-0.0152,-0.03,0.0493,-0.0392,-0.0637,–
"O=C(c1cc(Cc2n[nH]c(=O)c3ccccc23)ccc1F)N1CCN(C(=O)C2CC2)CC1 [Olaparib] + CN(CC[C@H](CSC1=CC=CC=C1)NC2=C(C=C(C=C2)S(=O)(=O)NC(=O)C3=CC=C(C=C3)N4CCC(CC4)[C@H](C5=CC=CC=C5C6=CC=C(C=C6)Cl)O)S(=O)(=O)C(F)(F)F)CCO [AZD4320] (first compound max 10 µM, 7x7, partner max 1 µM)",-0.0411,0.0322,-0.0311,0.0491,-0.083,0.0253,0.0129,0.129,0.141,-0.0587,-0.0363,–
"CN(CCO)CC[C@H](CSc1ccccc1)Nc1ccc(S(=O)(=O)NC(=O)c2ccc(N3CCC([C@@H](O)c4ccccc4-c4ccc(Cl)cc4)CC3)cc2)cc1S(=O)(=O)C(F)(F)F [AZD4320] + CS(=O)(=O)CCNCc1ccc(-c2ccc3ncnc(Nc4ccc(OCc5cccc(F)c5)c(Cl)c4)c3c2)o1 [Lapatinib] (first compound max 1 µM, 7x7, partner max 10 µM)",0.0438,0.0811,0.0162,-0.0958,0.0311,0.0395,0.0536,0.138,0.117,-0.0156,0.0312,0.0537
"O=C(c1cc(Cc2n[nH]c(=O)c3ccccc23)ccc1F)N1CCN(C(=O)C2CC2)CC1 [Olaparib] + COc1nnc2ccc(N3CCC(c4ccc(OCCN5CCN(C)C(=O)[C@H]5C)cc4)CC3)nn12 [AZD5153] (first compound max 10 µM, 7x7, partner max 1 µM)",-0.0676,-0.0142,-0.0244,0.0116,-0.0367,-0.0044,-0.0402,0.0362,0.0107,-0.0779,-0.0195,–
"Cc1nc(-c2cn3c(n2)-c2ccc(-c4cnn(C(C)(C)C(N)=O)c4)cc2OCC3)n(C(C)C)n1 [Taselisib] + O=C(Nc1ccc2[nH]nc(-c3ccncc3)c2c1)[C@@H]1CCN(CC(=O)N2CCN(c3ccc(-c4ncccn4)cc3)CC2)C1 [SCH772984] (first compound max 10 µM, 7x7, partner max 5 µM)",-0.0001,0.0278,-0.0292,0.0372,0.0874,0.0132,0.0593,0.0128,-0.0407,0.0123,-0.0398,0.0664
"C=CCn1c(=O)c2cnc(Nc3ccc(N4CCN(C)CC4)cc3)nc2n1-c1cccc(C(C)(C)O)n1 [AZD1775] + Nc1ccn([C@@H]2O[C@H](CO)[C@@H](O)C2(F)F)c(=O)n1 [Gemcitabine] (first compound max 1 µM, partner max 0.3 µM)",0.0276,–,0.0364,-0.029,0.0712,-0.0104,-0.0232,0.0396,0.0398,-0.0298,0.0264,–
"Cc1c2c(nn1C)CSCc1cc(n(C)n1)CSc1cc(c3ccccc3c1)OCCCc1c(C(=O)O)n(C)c3c-2c(Cl)ccc13 [AZD5991] + CS(=O)(=O)CCNCc1ccc(-c2ccc3ncnc(Nc4ccc(OCc5cccc(F)c5)c(Cl)c4)c3c2)o1 [Lapatinib] (first compound max 1 µM, 7x7, partner max 10 µM)",0.0807,0.0426,-0.0374,0.0191,-0.0352,-0.0015,0.0603,0.033,0.0138,-0.0054,-0.063,-0.0239
"Cc1c2c(nn1C)CSCc1cc(n(C)n1)CSc1cc(c3ccccc3c1)OCCCc1c(C(=O)O)n(C)c3c-2c(Cl)ccc13 [AZD5991] + Nc1ccn([C@@H]2O[C@H](CO)[C@@H](O)C2(F)F)c(=O)n1 [Gemcitabine] (first compound max 1 µM, 7x7, partner max 0.3 µM)",-0.0307,–,-0.0604,-0.109,-0.0523,0.0582,0.0365,-0.0158,-0.0364,0.0106,-0.005,–
"C=CCn1c(=O)c2cnc(Nc3ccc(N4CCN(C)CC4)cc3)nc2n1-c1cccc(C(C)(C)O)n1 [AZD1775] + CCc1c2c(nc3ccc(O)cc13)-c1cc3c(c(=O)n1C2)COC(=O)[C@]3(O)CC [SN-38] (first compound max 1 µM, partner max 0.3 µM)",-0.0638,-0.0339,-0.0341,-0.0134,-0.0267,-0.0342,-0.0528,-0.0501,0.0003,-0.0906,0.106,-0.0592
"Cc1c2c(nn1C)CSCc1cc(n(C)n1)CSc1cc(c3ccccc3c1)OCCCc1c(C(=O)O)n(C)c3c-2c(Cl)ccc13 [AZD5991] + CC(=O)O[C@H]1C(=O)[C@@]2(C)[C@H]([C@H](OC(=O)c3ccccc3)[C@]3(O)C[C@H](OC(=O)[C@H](O)[C@@H](NC(=O)c4ccccc4)c4ccccc4)C(C)=C1C3(C)C)[C@]1(OC(C)=O)CO[C@@H]1C[C@@H]2O [Paclitaxel] (first compound max 1 µM, 7x7, partner max 3 µM)",0.0286,-0.0275,-0.0136,-0.0587,-0.0624,-0.0345,0.0649,0.0625,0.0008,-0.0193,0.017,–
"O=C(c1cc(Cc2n[nH]c(=O)c3ccccc23)ccc1F)N1CCN(C(=O)C2CC2)CC1 [Olaparib] + CC1(C)CCC(CN2CCN(c3ccc(C(=O)NS(=O)(=O)c4ccc(NCC5CCOCC5)c([N+](=O)[O-])c4)c(Oc4cnc5[nH]ccc5c4)c3)CC2)=C(c2ccc(Cl)cc2)C1 [Venetoclax] (first compound max 10 µM, 7x7, partner max 1 µM)",-0.0455,0.186,-0.0065,-0.0619,-0.0786,0.001,-0.0472,0.0125,0.112,-0.0407,-0.0527,–
"O=C(c1cc(Cc2n[nH]c(=O)c3ccccc23)ccc1F)N1CCN(C(=O)C2CC2)CC1 [Olaparib] + Cc1c2c(nn1C)CSCc1cc(n(C)n1)CSc1cc(c3ccccc3c1)OCCCc1c(C(=O)O)n(C)c3c-2c(Cl)ccc13 [AZD5991] (first compound max 10 µM, 7x7, partner max 1 µM)",-0.052,-0.068,-0.0244,-0.0101,-0.069,-0.0207,-0.0185,0.015,0.0865,-0.054,-0.0539,–
